# Measured values as given in patent US8889712B2, “IAP antagonists” (Bristol-Myers Squibb Company, priority 2012, dated 2014).
# Like-named read-outs stand apart in the source and are kept apart here.
# Experiments:
# XIAP BIR2-3 = target: T1, XIAP BIR2-3 (Homo sapiens, UniProt P98170, C202A/C213G); test: XIAP-BIR2-3 dimeric SMAC Peptide Homogeneous Time Resolved Fluorescence (HTRF) Assay; format: binding
# T1 construct: His-BIR2-3 (125-356, C202A/C213G, XIAP)
# Procedure: B. […] Assays were performed in black, flat-bottom, 384-well plates. […] Compounds were dissolved at 3 mM in dimethylsulfoxide (DMSO) and evaluated at eleven serially diluted concentrations. IC50 and Ki values were derived by non-linear regression analysis.
# XIAP BIR3 = target: T2, XIAP BIR3 (Homo sapiens, UniProt P98170); test: XIAP-BIR3/SMAC Homogeneous Time Resolved Fluorescence (HTRF) Assay; format: binding
# T2 construct: His-BIR3 (241-356, XIAP)
# T2 sequence (P98170 241-356): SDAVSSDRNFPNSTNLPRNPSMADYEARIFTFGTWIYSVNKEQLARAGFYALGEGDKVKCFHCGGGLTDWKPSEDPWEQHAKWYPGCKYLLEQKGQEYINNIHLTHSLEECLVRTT
# Procedure: A. XIAP-BIR3/SMAC Homogeneous Time Resolved Fluorescence (HTRF) Assay Assays were performed in black, flat-bottom, 384-well plates. […] The reaction was incubated at room temperature for 60 minutes, following which 10 μl of mouse anti-6×His-terbium labeled Fab (Medarex, Cis-bio) was added to the reaction (40 μl) for an additional 30 minute incubation. […] Compounds were dissolved at 3 mM in dimethylsulfoxide (DMSO) and evaluated at eleven serially diluted concentrations. IC50 and Ki values were derived by non-linear regression analysis.
# [1] = 0.5 nM N-His-BIR2-3 (125-356, C202A/C213G, XIAP), 20 nM fluorescein labeled dimeric SMAC peptide, HTRF signal, read-out: XIAP BIR2-3 IC50
# [2] = 1 nM N-His-BIR3 (241-356, XIAP), 5 nM fluorescein labeled SMAC peptide, HTRF signal, read-out: XIAP BIR3 IC50
# T1 sequence (P98170 125-356 C202A/C213G): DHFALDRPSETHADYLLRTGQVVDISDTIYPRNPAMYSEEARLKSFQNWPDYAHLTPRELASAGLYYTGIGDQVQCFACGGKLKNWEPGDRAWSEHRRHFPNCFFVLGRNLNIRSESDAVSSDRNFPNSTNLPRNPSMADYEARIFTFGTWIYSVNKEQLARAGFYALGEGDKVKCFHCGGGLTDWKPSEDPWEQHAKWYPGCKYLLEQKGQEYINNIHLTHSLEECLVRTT
SMILES,IC50 (XIAP BIR2-3; [1]),IC50 (XIAP BIR3; [2]),IC50 (XIAP BIR2-3),IC50 (XIAP BIR3)
"CN[C@@H](C)C(=O)N[C@H](C(=O)N1CC(c2ccc3c(c2)CN(C(=O)[C@@H](NC(=O)[C@H](C)NC)C(C)(C)C)[C@H](C(=O)NC2CCCc4ccccc42)C3)C[C@H]1C(=O)NC(Cc1ccccc1)C(=O)NCc1ccc(OC)cc1)C(C)(C)C (stereo in doubt) [Example 70, (S)-2-((S)-3,3-Dimethyl-2-((S)-2-(methylamino)propanamido)butanoyl)-7-((3S,5S)-1-((S)-3,3-dimethyl-2-((S)-2-(methylamino)propanamido)butanoyl)-5-(((S)-1-((4-methoxybenzyl)amino)-1-oxo-3-phenylpropan-2-yl)carbamoyl)pyrrolidin-3-yl)-N-((R)-1,2,3,4-tetrahydronaphthalen-1-yl)-1,2,3,4-tetrahydroisoquinoline-3-carboxamide]",2.2 nM,8.9 nM,–,–
"CN[C@@H](C)C(=O)N[C@H](C(=O)N1CC(c2ccc3c(c2)CN(C(=O)[C@@H](NC(=O)[C@H](C)NC)C(C)(C)C)[C@H](C(=O)NC2CCCc4ccccc42)C3)C[C@H]1C(=O)NC(Cc1ccccc1)C(=O)Nc1ccc(F)cc1)C(C)(C)C (stereo in doubt) [Example 71, (S)-2-((S)-3,3-Dimethyl-2-((S)-2-(methylamino)propanamido)butanoyl)-7-((3S,5S)-1-((S)-3,3-dimethyl-2-((S)-2-(methylamino)propanamido)butanoyl)-5-(((S)-1-((4-fluorophenyl)amino)-1-oxo-3-phenylpropan-2-yl)carbamoyl)pyrrolidin-3-yl)-N-((R)-1,2,3,4-tetrahydronaphthalen-1-yl)-1,2,3,4-tetrahydroisoquinoline-3-carboxamide]",1.5 nM,5.6 nM,–,–
"CN[C@@H](C)C(=O)N[C@H](C(=O)N1CC(c2ccc3c(c2)CN(C(=O)[C@@H](NC(=O)[C@H](C)NC)C(C)(C)C)[C@H](C(=O)NC2CCCc4ccccc42)C3)C[C@H]1C(=O)NC(Cc1ccccc1)C(=O)N(C)Cc1ccccc1)C(C)(C)C (stereo in doubt) [Example 72, (S)-7-((3S,5S)-5-(((S)-1-(Benzyl(methyl)amino)-1-oxo-3-phenylpropan-2-yl)carbamoyl)-1-((S)-3,3-dimethyl-2-((S)-2-(methylamino)propanamido)butanoyl)pyrrolidin-3-yl)-2-((S)-3,3-dimethyl-2-((S)-2-(methylamino)propanamido)butanoyl)-N-((R)-1,2,3,4-tetrahydronaphthalen-1-yl)-1,2,3,4-tetrahydroisoquinoline-3-carboxamide]",3.3 nM,16.5 nM,–,–
"CN[C@@H](C)C(=O)N[C@H](C(=O)N1Cc2cc(C3C[C@@H](C(=O)N[C@H](CO)Cc4ccccc4)N(C(=O)[C@@H](NC(=O)[C@H](C)NC)C(C)(C)C)C3)ccc2C[C@H]1C(=O)NC1CCCc2ccccc21)C(C)(C)C (stereo in doubt) [Example 74, (S)-2-((S)-3,3-Dimethyl-2-((S)-2-(methylamino)propanamido)butanoyl)-7-((3S,5S)-1-((S)-3,3-dimethyl-2-((S)-2-(methylamino)propanamido)butanoyl)-5-(((S)-1-hydroxy-3-phenylpropan-2-yl)carbamoyl)pyrrolidin-3-yl)-N-((R)-1,2,3,4-tetrahydronaphthalen-1-yl)-1,2,3,4-tetrahydroisoquinoline-3-carboxamide]",2.6 nM,13.6 nM,–,–
"CN[C@@H](C)C(=O)N[C@H](C(=O)N1Cc2cc(C(=O)N[C@H]3C[C@@H](C(=O)N[C@@H]4CCCc5ccccc54)N(C(=O)[C@@H](NC(=O)[C@H](C)NC)C(C)(C)C)C3)ccc2C[C@H]1C(=O)N[C@@H]1CCCc2ccccc21)C(C)(C)C [Example 1, (S)-2-((S)-3,3-Dimethyl-2-((S)-2-(methylamino)propanamido)butanoyl)-N^7-((3S,5S)-1-((S)-3,3-dimethyl-2-((S)-2-(methylamino)propanamido)butanoyl)-5-(((R)-1,2,3,4-tetrahydronaphthalen-1-yl)carbamoyl)pyrrolidin-3-yl)-N^3—((R)-1,2,3,4-tetrahydronaphthalen-1-yl)-1,2,3,4-tetrahydroisoquinoline-3,7-dicarboxamide]",–,–,3 nM,11 nM
CCN[C@@H](C)C(=O)N[C@H](C(=O)N1Cc2cc(C(=O)N[C@H]3C[C@@H](C(=O)NC4CCCc5ccccc54)N(C(=O)[C@@H](NC(=O)[C@H](C)NC)C(C)(C)C)C3)ccc2C[C@H]1C(=O)NC1CCCc2ccccc21)C(C)(C)C (stereo partly drawn) [Example 2],6 nM,9 nM,–,–
"CC[C@H](NC)C(=O)N[C@H](C(=O)N1Cc2cc(C(=O)N[C@H]3C[C@@H](C(=O)N[C@@H]4CCCc5ccccc54)N(C(=O)[C@@H](NC(=O)[C@H](C)NC)C(C)(C)C)C3)ccc2C[C@H]1C(=O)N[C@@H]1CCCc2ccccc21)C(C)(C)C [Example 3, (S)-2-((S)-3,3-Dimethyl-2-((S)-2-(methylamino)butanamido)butanoyl)-N^7-((3S,5S)-1-((S)-3,3-dimethyl-2-((S)-2-(methylamino)propanamido)butanoyl)-5-(((R)-1,2,3,4-tetrahydronaphthalen-1-yl)carbamoyl)pyrrolidin-3-yl)-N^3-((R)-1,2,3,4-tetrahydronaphthalen-1-yl)-1,2,3,4-tetrahydroisoquinoline-3,7-dicarboxamide]",3 nM,6 nM,–,–
"CN[C@@H](C)C(=O)N[C@H](C(=O)N1C[C@@H](NC(=O)c2ccc3c(c2)CN(C(=O)[C@@H](NC(=O)[C@@H](NC)C(C)C)C(C)(C)C)[C@H](C(=O)N[C@@H]2CCCc4ccccc42)C3)C[C@H]1C(=O)N[C@@H]1CCCc2ccccc21)C(C)(C)C [Example 4, (S)-N^7-((3S,5S)-1-((S)-3,3-Dimethyl-2-((S)-2-(methylamino)propanamido)butanoyl)-5-(((R)-1,2,3,4-tetrahydronaphthalen-1-yl)carbamoyl)pyrrolidin-3-yl)-2-((S)-3,3-dimethyl-2-((S)-3-methyl-2-(methylamino)butanamido)butanoyl)-N^3-((R)-1,2,3,4-tetrahydronaphthalen-1-yl)-1,2,3,4-tetrahydroisoquinoline-3,7-dicarboxamide]",11 nM,10 nM,–,–
"CN[C@@H](C)C(=O)N[C@H](C(=O)N1C[C@@H](NC(=O)c2ccc3c(c2)CN(C(=O)[C@@H](NC(=O)[C@@H](NC)C2CC2)C(C)(C)C)[C@H](C(=O)N[C@@H]2CCCc4ccccc42)C3)C[C@H]1C(=O)N[C@@H]1CCCc2ccccc21)C(C)(C)C [Example 5, (S)-2-((S)-2-((S)-2-Cyclopropyl-2-(methylamino)acetamido)-3,3-dimethylbutanoyl)-N^7-((3S,5S)-1-((S)-3,3-dimethyl-2-((S)-2-(methylamino)propanamido)butanoyl)-5-(((R)-1,2,3,4-tetrahydronaphthalen-1-yl)carbamoyl)pyrrolidin-3-yl)-N^3-((R)-1,2,3,4-tetrahydronaphthalen-1-yl)-1,2,3,4-tetrahydroisoquinoline-3,7-dicarboxamide]",13 nM,14 nM,–,–
"CN[C@@H](C)C(=O)N[C@H](C(=O)N1Cc2cc(C(=O)N[C@H]3C[C@@H](C(=O)N[C@@H]4CCCc5ccccc54)N(C(=O)[C@@H](NC(=O)[C@H](C)NC)C(C)(C)C)C3)ccc2C[C@H]1C(=O)N[C@@H]1CCCc2ccccc21)[C@@H](C)OC [Example 7, (S)-N^7-((3S,5S)-1-((S)-3,3-Dimethyl-2-((S)-2-(methylamino)propanamido)butanoyl)-5-(((R)-1,2,3,4-tetrahydronaphthalen-1-yl)carbamoyl)pyrrolidin-3-yl)-2-((2S,3R)-3-methoxy-2-((S)-2-(methylamino)propanamido)butanoyl)-N^3-((R)-1,2,3,4-tetrahydronaphthalen-1-yl)-1,2,3,4-tetrahydroisoquinoline-3,7-dicarboxamide]",6 nM,6 nM,–,–
"CCC(CC)[C@H](NC(=O)[C@H](C)NC)C(=O)N1Cc2cc(C(=O)N[C@H]3C[C@@H](C(=O)N[C@@H]4CCCc5ccccc54)N(C(=O)[C@@H](NC(=O)[C@H](C)NC)C(C)(C)C)C3)ccc2C[C@H]1C(=O)N[C@@H]1CCCc2ccccc21 [Example 8, (S)-N^7-((3S,5S)-1-((S)-3,3-Dimethyl-2-((S)-2-(methylamino)propanamido)butanoyl)-5-(((R)-1,2,3,4-tetrahydronaphthalen-1-yl)carbamoyl)pyrrolidin-3-yl)-2-((S)-3-ethyl-2-((S)-2-(methylamino)propanamido)pentanoyl)-N^3-((R)-1,2,3,4-tetrahydronaphthalen-1-yl)-1,2,3,4-tetrahydroisoquinoline-3,7-dicarboxamide]",2 nM,11 nM,–,–
"CN[C@@H](C)C(=O)N[C@@H](CC1CCCCC1)C(=O)N1Cc2cc(C(=O)N[C@H]3C[C@@H](C(=O)N[C@@H]4CCCc5ccccc54)N(C(=O)[C@@H](NC(=O)[C@H](C)NC)C(C)(C)C)C3)ccc2C[C@H]1C(=O)N[C@@H]1CCCc2ccccc21 [Example 9, (S)-2-((S)-3-Cyclohexyl-2-((S)-2-(methylamino)propanamido)propanoyl)-N^7-((3S,5S)-1-((S)-3,3-dimethyl-2-((S)-2-(methylamino)propanamido)butanoyl)-5-(((R)-1,2,3,4-tetrahydronaphthalen-1-yl)carbamoyl)pyrrolidin-3-yl)-N^3-((R)-1,2,3,4-tetrahydronaphthalen-1-yl)-1,2,3,4-tetrahydroisoquinoline-3,7-dicarboxamide]",3 nM,33 nM,–,–
